The text below walks through data of patent US7358359B2, “Antibacterial agents” (University of Washington, priority 2003, dated 2008).

Assay type in all cases: cell-based
For test [1], the system named is Acinetobacter calcoaceticus. Kind of test: MIC vs non-fermenting organisms: Acinetobacter calcoaceticus. The following applies: Acinet. calc., comparator antibacterials. The method, then:
(§1) Bacterial isolates were cultivated from −70° C. frozen stocks by two consecutive overnight passages at 35° C. in ambient air on 5% blood agar (Remel, Lenexa, Kans.). Clinical isolates tested were from a collection composed of isolates collected during clinical trials and recent clinical isolates obtained from various geographically diverse hospitals in the US. Quality control and primary panel strains were from the American Type Culture Collection (ATCC; Rockville, Md.), with the exception of P. aeruginosa PAO200, a strain with a deletion of the mexABoprM genes that was received from Dr. H. Schweizer.
(§2) Minimum Inhibitory Concentrations (MICs) were determined by the broth microdilution method in accordance with the National Committee for Clinical Laboratory Standards (NCCLS) guidelines. In brief, organism suspensions were are adjusted to a 0.5 McFarland standard to yield a final inoculum between 3×10^5 and 7×10^5 colony-forming units (CFU)/mL. Drug dilutions and inocula were made in sterile, cation adjusted Mueller-Hinton Broth (Remel). An inoculum volume of 100 μl was added to wells containing 100 μl of broth with 2-fold serial dilutions of drug. All inoculated microdilution trays were incubated in ambient air at 35° C. for 18-24 hours. Following incubation, the lowest concentration of the drug that prevented visible growth was recorded as the MIC.

Test [2] relates to Pseudomonas aeruginosa cystic fibrosis isolate 3317. Kind of test: MIC vs cystic fibrosis isolate of P. aeruginosa 3317 (resistant to aztreonam). Particulars: strain 3317, Aztr. R, comparator antibacterials. As for the experimental part: as §1, §2
For test [3], the system named is non-CF clinical isolates of P. aeruginosa. Kind of test: MIC vs non-CF clinical isolates of P. aeruginosa. Particulars: Pseudomonas aeruginosa, comparator antibacterials. As for the experimental part: as §1, with “Schweizer. […] Strain Z61 (ATCC 35151) is also hypersusceptible to antibacterials. It is thought that the hypersusceptibility of this strain is the result of increased permeability of its outer membrane (Angus B L et al, Antimicrobial Agents and Chemotherapy 1982 21,299-309: Outer membrane permeability in Pseudomonas aeruginosa: Comparison of a wild-type with an antibacterial-supersusceptible mutant).” for “Schweizer.”
as §2, with “MIC. Performance of the assay was monitored by the use of laboratory quality-control strains against tobramycin, that has a defined MIC spectrum, in accordance with NCCLS guidelines.” for “MIC.”

A further test relates to Klebsiella oxytoca. Briefly: MIC vs enteric organisms: Klebsiella oxytoca. The following applies: K. oxy., comparator antibacterials. As for the experimental part: as §1, §2
For a further test, the system named is Proteus mirabilis. Kind of test: MIC vs enteric organisms: Proteus mirabilis. The following applies: P. mir., comparator antibacterials. As for the experimental part: as §1, §2
The test system of test [4] is Pseudomonas aeruginosa cystic fibrosis isolate 3236. Briefly: MIC vs cystic fibrosis isolate of P. aeruginosa 3236 (sensitive to most antibacterials). Particulars: strain 3236, Sensitive, comparator antibacterials. The method, then: as §1, §2
For another test, the system named is Klebsiella pneumoniae. Briefly: MIC vs enteric organisms: Klebsiella pneumoniae. Particulars: K. pneu., comparator antibacterials. As for the experimental part:
as §1, §2

The test system of test [5] is Pseudomonas aeruginosa cystic fibrosis isolate 1145. Briefly: microbe, parasite or virus in culture. The following applies: strain 1145, MDR, comparator antibacterials, read-out: MIC. As for the experimental part:
as §1, §2

For test [6], the system named is Pseudomonas aeruginosa cystic fibrosis isolate 3224. Kind of test: MIC vs cystic fibrosis isolate of P. aeruginosa 3224. The following applies: strain 3224, Tobra R, comparator antibacterials. The method, then: as §1, §2
The test system of test [7] is Pseudomonas aeruginosa cystic fibrosis isolate 3198. Briefly: MIC vs cystic fibrosis isolate of P. aeruginosa 3198 (sensitive to most antibacterials). Particulars: strain 3198, Sensitive, comparator antibacterials. The method, then: as §1, §2
The next test deals with Enterobacter aerogenes. Briefly: MIC vs enteric organisms: Enterobacter aerogenes. Particulars: Klebsiella aerogenes; E. aer.; comparator antibacterials. The method, then:
as §1, §2

For another test, the system named is Alcaligenes xylosoxidans. Kind of test: MIC vs non-fermenting organisms: Alcaligenes xylosoxidans. The following applies: Achromobacter xylosoxidans; Alcal. xyl; comparator antibacterials. As for the experimental part:
as §1, §2

In test [8] the test system is Pseudomonas aeruginosa cystic fibrosis isolate 2196. Briefly: MIC vs cystic fibrosis isolate of P. aeruginosa 2196 (resistant to ciprofloxacin). The following applies: strain 2196, Cipro R, comparator antibacterials. The method, then:
as §1, §2

In test [9] the test system is Stenotrophomonas maltophilia. Kind of test: MIC vs non-fermenting organisms: Stenotrophomonas maltophilia. Particulars: S. malt., comparator antibacterials. As for the experimental part:
as §1, §2

The subject of a further test is Burkholderia cepacia. Briefly: MIC vs non-fermenting organisms: Burkholderia cepacia. The following applies: B. cepacia, comparator antibacterials. As for the experimental part:
as §1, §2

The test system of test [10] is Pseudomonas aeruginosa cystic fibrosis isolate 3232. Kind of test: MIC vs cystic fibrosis isolate of P. aeruginosa 3232 (Ceftaz. R). Particulars: strain 3232, Ceftaz. R, comparator antibacterials.
The subject of a further test is Enterobacter cloacae. Kind of test: MIC vs enteric organisms: Enterobacter cloacae. The following applies: E. clo., comparator antibacterials. The method, then:
as §1, §2

The subject of another test is Serratia marcescens. Kind of test: MIC vs enteric organisms: Serratia marcescens. Particulars: S. marc., comparator antibacterials. As for the experimental part: as §1, §2
A further test relates to Escherichia coli. Briefly: MIC vs enteric organisms: Escherichia coli clinical isolates. As for the experimental part: as §1, §2
In test [11] the test system is Pseudomonas aeruginosa cystic fibrosis isolate 3206. Kind of test: microbe, parasite or virus in culture. The following applies: strain 3206, MDR, comparator antibacterials, read-out: MIC. The method, then: as §1, §2
The mark [12] stands for this setting: Stenotrophomonas maltophilia, read-out: MIC.
[13] abbreviates: Burkholderia cepacia, read-out: MIC.
Setting [14] is: Escherichia coli, E. coli 2788, comparator antibacterials, read-out: MIC.
Where [15] appears, read: E. coli 1619, comparator antibacterials.
[16] abbreviates: Escherichia coli, E. coli 1619, comparator antibacterials, read-out: MIC.

Converted amounts (≈) assume the structure as drawn. Read-outs that look alike come from different tables or passages of the source.

Turning to `NC[C@H]1O[C@H](O[C@H]2[C@H](O)[C@@H](O[C@H]3O[C@H](CO)[C@@H](O)[C@H](N)[C@H]3O)[C@H](N)C[C@@H]2N)[C@H](N)C[C@@H]1O` [Tobramycin, tobramycin, reference compound], the MIC is 2 µg/mL (≈ 4.28 µM) in test [1]; 2 µg/mL (≈ 4.28 µM) in [2]; 8 µg/mL (≈ 17.1 µM) in test [3] (P. aer 12307); 2 µg/mL (≈ 4.28 µM) in [3] (P. aer psa-6b); 1 µg/mL (≈ 2.14 µM) with Klebsiella oxytoca; 2 µg/mL (≈ 4.28 µM) against Proteus mirabilis. Moreover, the MIC was 0.5 µg/mL (≈ 1.07 µM) in test [4]; 64 µg/mL (≈ 137 µM) in the test with Klebsiella pneumoniae; 8 to 32 µg/mL (≈ 17.1 to 68.4 µM) in [5]; 64 µg/mL (≈ 137 µM) in [6]; 2 µg/mL (≈ 4.28 µM) in test [7]; 64 µg/mL (≈ 137 µM) against Enterobacter aerogenes. In addition, the MIC is 64 µg/mL (≈ 137 µM) against Alcaligenes xylosoxidans; 2 µg/mL (≈ 4.28 µM) in test [8]; 0.5 µg/mL (≈ 1.07 µM) in test [9] (setting [12]); above 128 µg/mL against Burkholderia cepacia; 64 µg/mL (≈ 137 µM) in the test with Burkholderia cepacia (setting [13]); 1 µg/mL (≈ 2.14 µM) in test [10]. Further, the MIC with Enterobacter cloacae came to 0.06 µg/mL (≈ 0.128 µM); against Serratia marcescens, 2 µg/mL (≈ 4.28 µM).

For `CO/N=C(\C(=O)N[C@@H]1C(=O)N2C(C(=O)[O-])=C(C[N+]3(C)CCCC3)CS[C@H]12)c1csc(N)n1` [Cefepime, cefepime, reference compound], the MIC in test [1] was 8 µg/mL (≈ 16.6 µM); in test [2] it was 8 µg/mL (≈ 16.6 µM); in the test on Escherichia coli (setting [14]), at most 0.13 µg/mL; in [3] (P. aer 12307) it was 2 µg/mL (≈ 4.16 µM); in test [3] (P. aer psa-6b) it was 8 µg/mL (≈ 16.6 µM); in the test with Klebsiella oxytoca it was at most 0.13 µg/mL. In addition, the MIC against Proteus mirabilis is at most 0.13 µg/mL; in test [4] it was 2 µg/mL (≈ 4.16 µM); in the test with Klebsiella pneumoniae, 8 µg/mL (≈ 16.6 µM); in [5], above 128 µg/mL; in test [11], 32 µg/mL (≈ 66.6 µM); in test [6], 8 µg/mL (≈ 16.6 µM). Also, the MIC in test [7] turned out to be 4 µg/mL (≈ 8.32 µM); with Alcaligenes xylosoxidans, 8 µg/mL (≈ 16.6 µM); in [8], 2 µg/mL (≈ 4.16 µM); against Burkholderia cepacia it was 16 µg/mL (≈ 33.3 µM); in the test on Burkholderia cepacia (setting [13]), 32 µg/mL (≈ 66.6 µM); in test [10], 2 µg/mL (≈ 4.16 µM). Further, the MIC with Enterobacter cloacae and in the test with Serratia marcescens was at most 0.13 µg/mL each time.

For `CC(C)(O/N=C(\C(=O)N[C@@H]1C(=O)N2C(C(=O)[O-])=C(C[n+]3ccccc3)CS[C@H]12)c1csc(N)n1)C(=O)O` [Ceftazidime, ceftazidime, reference compound], the MIC is 16 µg/mL (≈ 29.3 µM) in [1]; 4 µg/mL (≈ 7.32 µM) in [2]; above 128 µg/mL with Escherichia coli (Escherichia coli); 0.25 µg/mL (≈ 0.457 µM) in the test on Escherichia coli (setting [14]); 4 µg/mL (≈ 7.32 µM) in [3] (P. aer 12307); 64 µg/mL (≈ 117 µM) in [3] (P. aer psa-6b). The MIC against Klebsiella oxytoca is 0.25 µg/mL (≈ 0.457 µM); against Proteus mirabilis it was at most 0.13 µg/mL; in test [4], 0.25 µg/mL (≈ 0.457 µM); against Klebsiella pneumoniae, 8 µg/mL (≈ 14.6 µM); in test [5], above 128 µg/mL; in test [11], above 128 µg/mL. The MIC in test [6] stood at 2 µg/mL (≈ 3.66 µM); in test [7], 2 µg/mL (≈ 3.66 µM); in the test with Enterobacter aerogenes, 32 µg/mL (≈ 58.5 µM); against Alcaligenes xylosoxidans it was 1 µg/mL (≈ 1.83 µM); in [8] it was 2 µg/mL (≈ 3.66 µM); in test [9] (setting [12]), 1 µg/mL (≈ 1.83 µM). Besides, the MIC in the test on Burkholderia cepacia turned out to be 4 µg/mL (≈ 7.32 µM); with Burkholderia cepacia (setting [13]), 8 µg/mL (≈ 14.6 µM); in test [10] it was 64 µg/mL (≈ 117 µM); against Enterobacter cloacae, 0.25 µg/mL (≈ 0.457 µM); with Serratia marcescens, 0.25 µg/mL (≈ 0.457 µM).

On to `C[C@H]1[C@H](NC(=O)/C(=N\OC(C)(C)C(=O)O)c2csc(N)n2)C(=O)N1S(=O)(=O)O` [Aztreonam, aztreonam, reference compound], for which the MIC in test [1] is 32 µg/mL (≈ 73.5 µM); in [2] it was 64 µg/mL (≈ 147 µM); against Escherichia coli (setting [15]), 64 µg/mL (≈ 147 µM); with Escherichia coli (setting [16]), 128 µg/mL (≈ 294 µM); in the test on Escherichia coli (setting [14]), at most 0.13 µg/mL; in test [3] (P. aer 12307) it was 16 µg/mL (≈ 36.7 µM). In addition, the MIC is 32 µg/mL (≈ 73.5 µM) in test [3] (P. aer psa-6b); 0.5 µg/mL (≈ 1.15 µM) in the test on Klebsiella oxytoca; at most 0.13 µg/mL with Proteus mirabilis; 0.5 µg/mL (≈ 1.15 µM) in test [4]; 2 µg/mL (≈ 4.59 µM) in the test on Klebsiella pneumoniae; above 128 µg/mL in [5]. The MIC in test [11] is above 128 µg/mL; in test [6], 1 µg/mL (≈ 2.3 µM); in [7], 1 µg/mL (≈ 2.3 µM); in the test with Alcaligenes xylosoxidans, 32 µg/mL (≈ 73.5 µM); in [8] it was 1 µg/mL (≈ 2.3 µM); in [9], 16 µg/mL (≈ 36.7 µM). The MIC in the test on Burkholderia cepacia (setting [13]) is 64 µg/mL (≈ 147 µM); in [10] it was 1 µg/mL (≈ 2.3 µM); in the test with Enterobacter cloacae, at most 0.13 µg/mL; in the test with Serratia marcescens it was at most 0.13 µg/mL.

In the case of `C[C@@H](O)[C@H]1C(=O)N2C(C(=O)O)=C(S[C@@H]3CN[C@H](C(=O)N(C)C)C3)[C@H](C)[C@H]12` [Meropenem, meropenem, reference compound], the MIC was 4 µg/mL (≈ 10.4 µM) in test [1]; 0.13 µg/mL (≈ 0.339 µM) in the test on Escherichia coli (setting [15]); 0.25 µg/mL (≈ 0.652 µM) with Escherichia coli (setting [16]); at most 0.06 µg/mL in the test on Escherichia coli (setting [14]); 0.5 µg/mL (≈ 1.3 µM) in [3] (P. aer 12307); 0.25 µg/mL (≈ 0.652 µM) in test [3] (P. aer psa-6b). The MIC in the test with Klebsiella oxytoca is at most 0.06 µg/mL; in the test on Proteus mirabilis, 0.5 µg/mL (≈ 1.3 µM); against Klebsiella pneumoniae it was 0.13 µg/mL (≈ 0.339 µM); against Enterobacter aerogenes, 2 µg/mL (≈ 5.22 µM); against Alcaligenes xylosoxidans it was 0.5 µg/mL (≈ 1.3 µM); in test [9] (setting [12]) it was 64 µg/mL (≈ 167 µM). The results for the MIC in the test with Burkholderia cepacia (setting [13]), with Enterobacter cloacae and against Serratia marcescens were 4 µg/mL (≈ 10.4 µM), at most 0.06 µg/mL and 0.13 µg/mL (≈ 0.339 µM), respectively.
